What all share (assay): NCI anticancer screen, dose series, 48 h
For assay [1], the system named is DU-145 prostate.
Assay [2] relates to A498 renal.
The subject of assay [3] is COLO 205 colon.
In assay [4] the test system is SN12C renal.
Assay [5] relates to HT29 colon.
Assay [6] has as its system UACC-257 melanoma.
In assay [7] the test system is ACHN renal.
Assay [8] concerns OVCAR-4 ovarian.
Assay [9] deals with NCI-H522 lung.
Assay [10] deals with MCF7 breast.
Assay [11] relates to MDA-MB-231 breast.
Assay [12] concerns CCRF-CEM leukemia.
Assay [13] deals with M14 melanoma.
Assay [14] has as its system HL-60(TB) leukemia.
The subject of assay [15] is RPMI-8226 leukemia.
Assay [16] has as its system SK-MEL-2 melanoma.
The subject of assay [17] is EKVX NSCLC.
In assay [18] the test system is SK-MEL-5 melanoma.
The subject of assay [19] is LOX IMVI melanoma.
The subject of assay [20] is SNB-75 CNS.

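Step 1: Grow cells in 96-well plates. Step 2: Expose to compound for 48 hours at 5 concentrations. Step 3: Interpolate endpoints linearly; if unreached, use highest concentration. TGI: concentration producing complete growth inhibition.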

For `Cc1ccc2c(n1)NC(=O)C(Cc1ccccc1)(N=[N+]=[N-])C2=O` (centres undefined), the TGI in assay [1], in assay [2], in assay [3], in assay [4], in assay [5] and in [6] was above 100 µM in each case. The TGI in assay [7], in [8], in assay [9], in [10], in [11] and in assay [12] was above 100 µM each time. For the same compound, the TGI in assay [13] was above 100 µM.

Regarding `COC(=O)c1sc2c(c1C(=O)OC)C(=NC(C)(C)C)SC2=NC(C)(C)C`, the TGI was found to be 28.6 µM in assay [14]; 41.4 µM in assay [15]; 30.5 µM in assay [1]; 33.1 µM in assay [16]; 34.7 µM in assay [17]; 29.5 µM in assay [18]. Also, the TGI in [19] came to 38.6 µM; in assay [2], 32.5 µM; in [3] it was 34 µM; in [4], 34.5 µM; in assay [5], 37.6 µM; in assay [6] it was 32.6 µM. The TGI in [7] is 33.1 µM; in [8] it was 44 µM; in [9], 37.5 µM; in assay [10] it was 33.1 µM; in [11], 37.3 µM; in assay [12], 33.5 µM. In addition, the TGI in assay [13] was 32.2 µM.

In the case of `COC(=O)[C@]12C3=C(O)C(=O)C[C@H]1OC[C@H]2C=CC3`, the TGI in [15], in assay [1], in assay [16], in assay [17], in assay [18] and in [19] was above 100 µM each time. The TGI in assay [2], in assay [3], in [4], in assay [6], in assay [7] and in assay [8] was above 100 µM each time. For the same compound, the TGI is 46.8 µM in assay [9]; above 100 µM in [10]; above 100 µM in [11]; above 100 µM in assay [13]; above 100 µM in [20].

Turning to `C/C(O)=C(\C=NC(=S)c1cccnc1)C(=O)Nc1ccccc1C`, the TGI in assay [15], in assay [1], in [16], in [17], in assay [18] and in [19] was above 100 µM each time. Besides, the TGI in assay [2], in [3], in assay [4], in assay [5], in assay [6] and in [7] was above 100 µM in each case. For the same compound, the TGI in [8], in [9], in assay [10], in [11], in assay [12] and in [13] was above 100 µM throughout. In assay [20], this compound gave a TGI above 100 µM.

As to `CCOC(=O)c1csc(C(CSCc2ccc(OC)cc2)N2C(=O)c3ccccc3C2=O)n1` (centres undefined), the TGI in assay [14], in assay [15], in [1], in assay [17], in assay [18] and in assay [19] was above 100 µM in each case. The TGI in assay [2], in assay [3], in assay [4], in assay [5], in [6] and in assay [7] was above 100 µM throughout. Also, the TGI was above 100 µM in assay [8]; 58.4 µM in assay [9]; above 100 µM in assay [10]; above 100 µM in [11]; above 100 µM in [12]; above 100 µM in assay [13].

Turning to `CC(=Nc1cccc(Cl)c1)c1ccncc1`, the TGI in [15], in assay [1], in assay [16], in assay [17], in assay [18] and in assay [19] was above 100 µM throughout. In addition, the TGI in [2], in assay [3], in [4], in assay [5], in assay [7] and in [8] was above 100 µM throughout. In addition, the TGI in assay [9], in assay [10], in [11], in assay [12], in [13] and in assay [20] was above 100 µM each time.

Regarding `O=c1[nH]nc(-c2ccccc2)n1-c1cccc([N+](=O)[O-])c1`, the TGI in assay [15], in assay [1], in assay [16], in [17], in assay [18] and in assay [19] was above 100 µM throughout. Further, the TGI in assay [2], in [3], in assay [4], in assay [5], in assay [6] and in assay [7] was above 100 µM throughout. Moreover, the TGI in assay [8], in [9], in assay [10], in assay [11], in [12] and in assay [13] was above 100 µM each time. Besides, in assay [20], the TGI was above 100 µM.

In the case of `CN1C(=O)[C@H](c2c[nH]c3ccccc23)[C@H](c2c[nH]c3ccccc23)C1=O`, the TGI in assay [14] is above 46.9 µM; in assay [15], above 66.9 µM; in [1], above 100 µM; in assay [16], above 55.2 µM; in assay [17], above 100 µM; in assay [18], above 52.5 µM. For the same compound, the TGI in [19] was 37.8 µM; in assay [3] it was above 37.9 µM; in assay [4] it was above 100 µM; in assay [5], above 83.4 µM; in [6], above 63.8 µM; in assay [7] it was above 66.3 µM. For the same compound, the TGI was 50.6 µM in assay [8]; above 100 µM in assay [9]; above 100 µM in [10]; above 31.8 µM in assay [11]; 87 µM in assay [12]; above 100 µM in assay [13]. Besides, the TGI in [20] was above 92.8 µM.

`Cc1ccc2c(=O)c(-c3nnc(NC4CCCCC4)s3)c[nH]c2n1`: the TGI in assay [14], in [15], in [1], in [16], in assay [17] and in [18] was above 100 µM each time. The TGI in assay [19], in assay [2], in [3], in [4], in [5] and in [6] was above 100 µM each time. Besides, the TGI in assay [7], in assay [8], in assay [9], in assay [10], in assay [11] and in assay [12] was above 100 µM throughout. The compound also returned a TGI in assay [13] above 100 µM.

For `CC(=O)O[C@H]1CC[C@H]2[C@@H]3CCC4=C/C(=N/OCCN(C)C)CC[C@]4(C)[C@H]3CC[C@]12C`, the TGI amounted to 3.68 µM in assay [14]; 6.27 µM in [15]; 31 µM in assay [1]; 26.9 µM in assay [16]; 29 µM in assay [17]; 9.62 µM in assay [18]. In addition, the TGI in assay [19] was 11 µM; in [3] it was 8.18 µM; in assay [4] it was 33.7 µM; in assay [5], 6.8 µM; in [6], 21.1 µM; in assay [7], 26.2 µM. Besides, the TGI is 23.5 µM in [8]; 22.7 µM in assay [9]; 17.9 µM in [10]; 39.5 µM in assay [11]; 10.1 µM in assay [12]; 10.1 µM in [13]. The same compound showed a TGI in [20] of 19.1 µM.

Consider `CCOC(=O)[C@@H]1ON2O[C@@H](OC3CCCCC3c3ccccc3)C[C@H]3OC(=O)[C@@H]1C32` (some centres undefined), for which the TGI in assay [15], in [1], in assay [17], in [18], in [19] and in assay [2] was above 100 µM each time. The TGI in [3], in assay [4], in assay [5], in [6], in [7] and in [9] was above 100 µM each time. For the same compound, the TGI in assay [10] was above 100 µM; in [11], above 100 µM; in assay [12] it was 21.9 µM; in [13], above 100 µM; in [20] it was above 100 µM.

For the compound `CNC(=O)CCCNC(=O)CCCCC(=O)N(C)C`, the TGI in assay [15], in assay [1], in assay [16], in assay [18], in assay [2] and in [3] was above 100 µM in each case. The TGI in assay [4], in [5], in assay [7], in [8], in [9] and in assay [10] was above 100 µM each time. The TGI in [11] and in [13] was above 100 µM in each case.

Turning to `COc1ccc(/C=C2\Sc3nnc(-c4ccccc4)n3N=C2c2cc(F)c(Cl)cc2Cl)cc1OC`, the TGI in [14], in [15], in assay [1], in assay [16], in [17] and in assay [18] was above 100 µM each time. Moreover, the TGI in assay [19], in [2], in [5], in assay [6], in [7] and in [8] was above 100 µM in each case. Also, the TGI in assay [9] was 38.3 µM; in [10], above 100 µM; in [11] it was above 100 µM; in assay [12] it was above 100 µM; in [13], above 100 µM.

As to `CCCCCCc1cc2cc(-c3cn4c(n3)sc3ccccc34)c(=O)oc2cc1O`, the TGI in [14], in assay [15], in assay [1], in assay [16], in assay [17] and in [18] was above 100 µM each time. The TGI in assay [19], in [3], in assay [4], in [5], in [6] and in [7] was above 100 µM throughout. In addition, the TGI in assay [8], in assay [9], in [10], in assay [11], in assay [12] and in assay [13] was above 100 µM in each case. In assay [20], the TGI was above 100 µM.

Regarding `COC1(OC)N=C(N)C2(C#N)C(C)=C3NCN(C)N=C3C12C#N` (centres undefined), the TGI in assay [15], in assay [1], in assay [16], in assay [17], in [18] and in assay [19] was above 100 µM each time. In addition, the TGI in assay [2], in [3], in assay [4], in assay [5], in assay [6] and in assay [7] was above 100 µM throughout. Besides, the TGI in [9], in assay [10], in [11], in assay [13] and in [20] was above 100 µM throughout.

Values taken from PubChem BioAssay (NCI).
